Results: patent US4431640A, “Process for inducing anabolic and androgenic activity in animals” (Roussel Uclaf, priority 1980, dated 1984)

Legend:
androgen receptor = target: T1, androgen receptor (Rattus norvegicus, UniProt P15207); assay: androgenic activity by hormonal receptor method (displacement of tritied R from prostate cytosol); type: binding, rats; details: castrated male rat prostate cytosol, incubated at 0° C. for 2 hours, testosterone = 100
T1 construct: The prostate was removed from male rats castrated 24 hours earlier and it was homogenized; from tissue; host or cells: prostate cytosol (105,000 g supernatant) of male rats castrated 24 hours earlier
T1 sequence (P15207 1-902): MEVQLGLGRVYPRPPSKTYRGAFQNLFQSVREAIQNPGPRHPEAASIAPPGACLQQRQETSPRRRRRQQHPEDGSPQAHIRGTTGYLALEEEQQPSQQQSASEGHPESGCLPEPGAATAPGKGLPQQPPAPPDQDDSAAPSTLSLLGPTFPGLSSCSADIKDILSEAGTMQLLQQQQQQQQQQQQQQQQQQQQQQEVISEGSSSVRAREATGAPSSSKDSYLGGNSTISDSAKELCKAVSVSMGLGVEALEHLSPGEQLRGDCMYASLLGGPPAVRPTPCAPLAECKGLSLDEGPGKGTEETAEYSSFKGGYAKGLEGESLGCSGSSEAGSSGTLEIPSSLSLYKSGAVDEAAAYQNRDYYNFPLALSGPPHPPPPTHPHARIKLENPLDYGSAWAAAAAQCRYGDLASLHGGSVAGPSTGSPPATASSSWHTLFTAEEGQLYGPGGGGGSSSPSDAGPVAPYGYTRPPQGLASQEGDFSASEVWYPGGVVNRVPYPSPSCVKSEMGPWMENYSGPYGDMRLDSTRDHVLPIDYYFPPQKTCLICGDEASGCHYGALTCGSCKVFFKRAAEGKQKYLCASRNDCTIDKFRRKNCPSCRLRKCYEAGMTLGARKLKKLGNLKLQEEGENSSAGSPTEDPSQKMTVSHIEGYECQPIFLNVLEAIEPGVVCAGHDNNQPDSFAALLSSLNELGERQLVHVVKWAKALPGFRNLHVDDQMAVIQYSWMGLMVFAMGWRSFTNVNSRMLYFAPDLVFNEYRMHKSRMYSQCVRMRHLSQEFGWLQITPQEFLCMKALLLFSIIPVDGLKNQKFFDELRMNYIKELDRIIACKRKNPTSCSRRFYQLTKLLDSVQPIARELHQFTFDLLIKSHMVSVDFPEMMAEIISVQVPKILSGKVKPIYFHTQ
Description: The androgenic activity of the compound of Example 1 and 11β-propyl-17α-methyl-Δ^4,9 -estradiene-17β-ol-3-one (compound A) were compared by the hormonal receptor method of Raynaud et al [J. Ster. Biochem., Vol. 6 (1975), p. 615-622]. The prostate was removed from male rats castrated 24 hours earlier and it was homogenized in a buffered 10 mmole tromethamine solution containing 0.25 M of saccharose and a pH of 7.4 with hydrochloric acid. The homogenate was centrifuged at 105,000 g for one hour and the liquid surnageant or "cytosol" was adjusted to obtain a 1/5 (weight/volume) dilution.
The radioactivity of tritied product was determined after about 2 hours in the receptor by the technique of carbon-dextran (1.25%-0.625%) absorption. […] B/T max. is the percentage of tied tritied R product when the compound is not added. B/T min. is the percentage of tied tritied product R when the maximum amount of cold product R is added. […] The relative affinity of the test product or ARL was determined using the formula [formula]

calves of the FFPN race = assay: weight gain test in calves after percutaneous treatment; type: in vivo
Description: This test was effected with groups of calves of the FFPN race and all groups received the same amount of feed. The control group were untreated and the other group received percutaneously on day J and J+7 200 mg of the compound of Example 1. The weights of the animals were determined 7 days before the treatment (J-7), on the day of treatment (J), on the day of the second treatment (J+7) and one week after the second treatment (J+14) and the results are reported in the following Table.

SMILES	relative affinity (ARL) (androgen receptor)	average weight gain (calves of the FFPN race; 7 days after the test, J 14 to J 21, 200 mg percutaneously on J and J+7)	Average weight of calves (calves of the FFPN race; day J + 7, day of second treatment, 200 mg percutaneously on J and J+7)	Average weight of calves (calves of the FFPN race; day J + 14, one week after second treatment, 200 mg percutaneously on J and J+7)	Average weight of calves (calves of the FFPN race; day J - 7, 7 days before the treatment (baseline))	Average weight of calves (calves of the FFPN race; day J, day of first treatment (200 mg percutaneously))	average weight gain (calves of the FFPN race; table total (J to J + 14), 200 mg percutaneously on J and J+7)
C[C@H]1C[C@@]2(C)[C@@H](CC[C@]2(C)O)[C@@H]2CCC3=CC(=O)CCC3=C21 [Example 1, 11β,17α-dimethyl-Δ^4,9-estradiene-17β-ol-3-one]	90	8.63 kg	60.47 kg	70.67 kg	45.50 kg	52.30 kg	18.37 kg
CCC[C@H]1C[C@@]2(C)[C@@H](CC[C@]2(C)O)[C@@H]2CCC3=CC(=O)CCC3=C12 [product A, 11β-propyl-17α-methyl-Δ^4,9-estradiene-17β-ol-3-one, reference compound]	22	–	–	–	–	–	–
